Data: patent US20080318910A1, “Controlled-Release Oral Dosage Form” (MISTRAL PHARMA, INC., priority 2005, published 2008)
In brackets after ≈: the same amount, converted by molar mass.

Assay: physchem

Structure (SMILES)	solubility (aqueous buffer, solubility, pH higher than 4.8)	solubility (aqueous buffer, solubility, pH lower than 4.8)	solubility (pH 2, simulated gastric fluid)	solubility (pH 5.5, aqueous buffer)
C/C=C/C=C/C(=O)O [Sorbic acid]	~333 mg/mL (≈ 2970 mM)	~2.5 mg/mL (≈ 22.3 mM)		
CCC(COC(=O)c1cc(OC)c(OC)c(OC)c1)(c1ccccc1)N(C)C (stereo not shown) [Trimebutine]			~11 mg/mL (≈ 28.4 mM)	1 mg/mL (≈ 2.58 mM)
